The structures appear in SMILES notation.

The target of one experiment is T1, Estrogen receptor (Homo sapiens, UniProt Q92731+P03372). Briefly: Binding affinity for estrogen receptor of human breast carcinoma (MCF-7) cell line.
For the compound `CN(C)CCOc1ccc(C2=C(c3ccccc3)CCOc3ccccc32)cc1`, the Ki (in general, a measure of affinity in units of concentration, obtained from inhibition or displacement) worked out at 3.2 µM.

The target of the next experiment is T1, Estrogen receptor. Briefly: Inhibition of estrogen receptor positive human breast carcinoma (MCF-7) cell proliferation. It is filed as functional.
`COc1ccccc1C1=C(c2ccc(OCCN(C)C)cc2)c2ccccc2OCC1`: the IC50 (usually the concentration needed to halve the response being measured) worked out at 11.7 µM.
The same measure, in the same setting: the same measure for `Cc1ccc(C2=C(c3ccc(OCCN(C)C)cc3)c3ccccc3OCC2)cc1`: 15.7 µM.
Still for that read-out and setting: the same measure for `Cc1cccc(C2=C(c3ccc(OCCN(C)C)cc3)c3ccccc3OCC2)c1`: 33.6 µM; for `CN(C)CCOc1ccc(C2=C(c3ccc(Cl)cc3)CCOc3ccccc32)cc1`: 18.3 µM.
Same read-out and setting: the same measure for `COc1ccc(C2=C(c3ccc(OCCN(C)C)cc3)c3ccccc3OCC2)cc1`: 11.1 µM; for `CN(C)CCOc1ccc(C2=C(c3ccc(C#N)cc3)CCOc3ccccc32)cc1`: 74.3 µM.
The compound `COc1cccc(C2=C(c3ccc(OCCN(C)C)cc3)c3ccccc3OCC2)c1` showed an IC50 of 56.6 µM.
Turning to `c1ccc(C2=C(c3ccc(OCCN4CCCCC4)cc3)c3ccccc3OCC2)cc1`, the IC50 came out at 10.6 µM.
On the same count and under the same terms, the same measure for `c1ccc(C2=C(c3ccc(OCCN4CCCC4)cc3)c3ccccc3OCC2)cc1`: 6.1 µM; for `CN(C)CCOc1ccc(C2=C(c3ccccc3)CCOc3ccccc32)cc1`: 16.2 µM; for `CN(C)CCOc1ccc(C2=C(c3cccc([N+](=O)[O-])c3)CCOc3ccccc32)cc1`: 64.6 µM.
The same measure, in the same setting: with `c1ccc(C2=C(c3ccc(OCCN4CCOCC4)cc3)c3ccccc3OCC2)cc1` the figure was 7.6 µM; with `CCN(CC)CCOc1ccc(C2=C(c3ccccc3)CCOc3ccccc32)cc1`, 14.2 µM.

A further experiment deals with T1, Estrogen receptor. Description: Binding affinity for estrogen receptor of human breast carcinoma (MCF-7) cell line; 828 +/- 106 […].
`Cc1ccc(C2=C(c3ccc(OCCN(C)C)cc3)c3ccccc3OCC2)cc1` yielded a Ki of 0.828 µM.
